Test system: BDNF and TrkB
Assay: Induction of BDNF and TrkB expression after pre-treatment with CHX or K252a
Assay type: cell-based, mouse
Conditions: 0.1 μM, two days
Method: Peptides were dissolved in water in serial dilutions of 10 mM, 1 mM, 100 μM and 10 μM from which the necessary amount was added directly to the culture medium to a final concentration of 0.05 μM, 1 μM, or 10 μM. The BDNF (Peprotech, NJ, USA) was used as a reference in concentrations of 20 ng/ml (0.79 nM) and 100 ng/ml (3.95 nM). Cycloheximide (CHX) (Sigma-Aldrich, St Louis, Mo., USA) was used for blocking protein synthesis. CHX original stock was 100 mg/ml (355.4 mM) in DMSO; from a second stock of 35.54 mM in DMSO, the dilutions were made to the final concentrations of 100 μM. The K252a (CALBIOCHEM/EMD) was used to inhibit the TrkB Receptor. From a stock of 100 μM in DMSO, K252a was diluted to a final working concentration of 200 nM. The E18 primary hippocampal cells were pre-treated with CHX or K252a 1 h prior to the addition of the peptides or BDNF and a time course of these treatments for 15 min, 60 min and 2 days was studied.
To evaluate whether the effect of B-5 and B-3 in induction of the expression of BDNF and TrkB was via the activation of the TrkB receptor and required signal transduction via TrkB and new protein synthesis, mouse embryonic E18 cultured hippocampal cells were pre-treated with the protein synthesis inhibitor, cycloheximide (CHX) or the Trk inhibitor K252a for 1 h, and then added Peptide B-5 at a concentration of 0.1 μM (the dose that gave the maximum induction of BDNF expression, FIGS. 5A and B) or BDNF 20 ng/ml as a positive control (FIG. 7C,D). A time course of these treatments was studied with Peptide B-5 or BDNF for 15 min, 60 min and two days.

Substance: Ac-I-K-R-G-CONH2 [Peptide B-5]
- increase in the expression of BDNF in the presence of CHX (CHX pre-treatment 1 h): inhibition of the increase
- increase in the expression of TrkB in the presence of CHX (CHX pre-treatment 1 h): inhibition of the increase
- induction of the expression of BDNF in cells treated with K252a (K252a pre-treatment 1 h): no more significant induction
- induction of the expression of TrkB in cells treated with K252a (K252a pre-treatment 1 h): no more significant induction
